In assay [1] the test system is HUT. Nature of the assay: HUT cell inhibition assay (WST-1 cell viability). Format: cell-based. The conditions noted are these: HUT cells, 72-96 h, WST-1 assay, IC50 range. The method in brief: (§1)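 Cells seeded at 1000-2000/well, grown 24 h, then treated for 72-96 h with 8 concentrations (top 10 μM, 3-fold, 6 replicates). Viability by WST-1; inhibition relative to DMSO, IC50 by sigmoidal variable-slope fit.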
In general terms: Tetrazolium dyes change colour on reduction, which living cells bring about.

Assay [2] deals with U937. In words: U937 cell inhibition assay (WST-1 cell viability). Format: cell-based. As to conditions: Homo sapiens, U-937; U937 cells, 72-96 h, WST-1 assay, IC50 range. The method in brief:
as §1

For assay [3], the target named is histone deacetylase activity (HeLa nuclear extract). In words: HDAC fluorescent activity assay (Biomol, Fluor de Lys substrate). Format: biochemical. As to conditions: IC50 range. The procedure, abridged:
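HeLa nuclear extract served as the deacetylase source for the acetyl-lysine Fluor de Lys substrate, with or without inhibitor. Developer converts deacetylated substrate to a fluorophore.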

In assay [4] the test system is HeLa cells. In words: HeLa cell inhibition assay (SRB cell viability). It is filed as cell-based. The conditions noted are these: Homo sapiens, HeLa, 72 h, IC50 range. The procedure, abridged:
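Log-phase cells seeded at 1000 cells/well, grown 24 h, then exposed to compound (final 20 μM top concentration) for 72 h. Viability by sulphorhodamine B staining, % inhibition relative to DMSO control. IC50 from 8-point sigmoidal variable-slope fit.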

Structures are written as SMILES.

Take `CCN(CC)CCC(=O)N(Cc1ccc2ccccc2c1)C1C2CN(c3ncc(C(=O)NO)cn3)CC21` (stereo not drawn) [Example 59, N-Hydroxy 2-{6-[(3-diethylaminopropionyl)naphthalen-2-ylmethylamino]-3-azabicyclo[3.1.0]hex-3-yl}-pyrimidine-5-carboxamide]: the IC50 in assay [1] was less than 330 nM; in assay [2] it was less than 330 nM; in assay [3], less than 100 nM; in assay [4] it was less than 330 nM.
Regarding `CC(=O)N(Cc1ccc2ccccc2c1)C1C2CN(c3ncc(C(=O)NO)cn3)CC21` (stereo not drawn) [Example 60, N-Hydroxy 2-[6-(acetylnaphthalen-2-ylmethylamino)-3-azabicyclo[3.1.0]hex-3-yl]pyrimidine-5-carboxamide], the IC50 in assay [1] is less than 330 nM; in assay [2], less than 330 nM; in assay [3], less than 100 nM; in assay [4], less than 330 nM.
On to `O=C(NO)c1cnc(N2CC3C(C2)C3N(Cc2ccc3ccccc3c2)C(=O)CCc2cccnc2)nc1` (stereo not drawn) [Example 61, N-Hydroxy 2-{6-[naphthalen-2-ylmethyl-(3-pyridin-3-yl-propionyl)amino]-3-aza-bicyclo[3.1.0]hex-3-yl}pyrimidine-5-carboxamide], for which the IC50 in assay [1] was less than 330 nM; in assay [2], 331 to 3300 nM; in assay [3] it was less than 100 nM; in assay [4], 331 to 3300 nM.
In the case of `O=C(NO)c1cnc(N2CC3C(C2)C3N2CCOCC2)nc1` (stereo not drawn) [Example 62, N-Hydroxy 2-(6-morpholin-4-yl-3-azabicyclo[3.1.0]hex-3-yl)pyrimidine-5-carboxamide], the IC50 in assay [1] is 331 to 3300 nM; in assay [2], greater than 3300 nM; in assay [3] it was 101 to 1000 nM; in assay [4], greater than 3300 nM.
Consider `O=C(NO)c1cnc(N2CC3C(C2)C3N2CCCCC2)nc1` (stereo not drawn) [Example 63, N-Hydroxy 2-(6-piperidin-1-yl-3-azabicyclo[3.1.0]hex-3-yl)pyrimidine-5-carboxamide], for which the concentration for half-maximal inhibition (IC50) was 331 to 3300 nM in assay [1], greater than 3300 nM in assay [2], 101 to 1000 nM in assay [3] and greater than 3300 nM in assay [4].
On to `O=C(NO)c1cnc(N2CC3C(C2)C3N2Cc3ccccc3C2)nc1` (stereo not drawn) [Example 64, N-Hydroxy 2-[6-(1,3-dihydro-2H-isoindol-2-yl)-3-azabicyclo[3.1.0]hex-3-yl]pyrimidine-5-carboxamide], for which the IC50 in assay [1] was less than 330 nM; in assay [2], 331 to 3300 nM; in assay [3], less than 100 nM; in assay [4] it was 331 to 3300 nM.
Take `O=C(NO)c1cnc(N2CC3C(C2)C3N2Cc3ccccc3CC2=O)nc1` (stereo not drawn) [Example 65, N-Hydroxy 2-[6-(3-oxo-3,4-dihydroisoquinolin-2(1H)-yl)-3-azabicyclo[3.1.0]hex-3-yl]pyrimidine-5-carboxamide]: the IC50 is 331 to 3300 nM in assay [1], 331 to 3300 nM in assay [2], less than 100 nM in assay [3] and 331 to 3300 nM in assay [4].
Take `O=C(NO)c1cnc(N2CC3C(C2)C3N2CCc3ccccc3C2)nc1` (stereo not drawn) [Example 66, N-Hydroxy 2-[6-(3,4-dihydroisoquinolin-2(1H)-yl)-3-azabicyclo[3.1.0]hex-3-yl]pyrimidine-5-carboxamide]: the half-maximal inhibitory concentration (IC50) in assay [1] is 331 to 3300 nM; in assay [2], 331 to 3300 nM; in assay [3] it was less than 100 nM; in assay [4], 331 to 3300 nM.
For the compound `O=C(NO)c1cnc(N2CC3C(C2)C3Nc2ccc3ccccc3n2)nc1` (stereo not drawn) [Example 67, N-Hydroxy 2-[6-(quinolin-2-ylamino)-3-azabicyclo[3.1.0]hex-3-yl]pyrimidine-5-carboxamide], the IC50 is less than 330 nM in assay [1], 331 to 3300 nM in assay [2], less than 100 nM in assay [3] and 331 to 3300 nM in assay [4].
`O=C(NO)c1cnc(N2CC3C(C2)C3Nc2nccc3ccccc23)nc1` (stereo not drawn) [Example 68, N-Hydroxy 2-[6-(isoquinolin-1-ylamino)-3-azabicyclo[3.1.0]hex-3-yl]pyrimidine-5-carboxamide]: the IC50 is less than 330 nM in assay [1], less than 330 nM in assay [2], less than 100 nM in assay [3] and less than 330 nM in assay [4].
On to `O=C(NO)c1cnc(NC2C3CN(S(=O)(=O)c4ccc5ccccc5c4)CC32)nc1` (stereo not drawn) [Example 69, N-Hydroxy 2-{[3-(2-naphthylsulfonyl)-3-azabicyclo[3.1.0]hex-6-yl]amino}pyrimidine-5-carboxamide], for which the IC50 is 331 to 3300 nM in assay [1], greater than 3300 nM in assay [2], less than 100 nM in assay [3] and greater than 3300 nM in assay [4].
With `O=C(NO)c1cnc(N2CC(NS(=O)(=O)c3ccc4ccccc4c3)C2)nc1` [Example 70, N-Hydroxy 2-{3-[(2-naphthylsulfonyl)amino]azetidin-1-yl}pyrimidine-5-carboxamide], the IC50 is 331 to 3300 nM in assay [1], greater than 3300 nM in assay [2], less than 100 nM in assay [3] and greater than 3300 nM in assay [4].
Take `O=C(NO)c1cnc(N2CC3C(CNCc4ccc5ccccc5c4)C3C2)nc1` (stereo not drawn) [Example 71, N-Hydroxy 2-{6-[(naphthalen-2-ylmethylamino)methyl]-3-azabicyclo[3.1.0]hex-3-yl}pyrimidine-5-carboxamide]: the IC50 in assay [1] was less than 330 nM; in assay [2] it was 331 to 3300 nM; in assay [3], less than 100 nM; in assay [4], 331 to 3300 nM.
With `O=C(NO)c1cnc(N2CC3C(CNCc4ccccc4)C3C2)nc1` (stereo not drawn) [Example 72, N-Hydroxy 2-{6-[(benzylamino)methyl]-3-azabicyclo[3.1.0]hex-3-yl}pyrimidine-5-carboxamide], the 50% inhibitory concentration (IC50) was less than 330 nM in assay [1], 331 to 3300 nM in assay [2], less than 100 nM in assay [3] and 331 to 3300 nM in assay [4].
`O=C(NO)c1cnc(N2CC3C(CNCc4ccc(Cl)cc4)C3C2)nc1` (stereo not drawn) [Example 73, N-Hydroxy 2-(6-{[(4-chlorobenzyl)amino]methyl}-3-azabicyclo[3.1.0]hex-3-yl)pyrimidine-5-carboxamide]: the concentration for half-maximal inhibition (IC50) in assay [1] was less than 330 nM; in assay [2], 331 to 3300 nM; in assay [3], less than 100 nM; in assay [4], 331 to 3300 nM.
Take `O=C(NO)c1cnc(N2CC3C(CNCc4ccc5ccccc5n4)C3C2)nc1` (stereo not drawn) [Example 74, N-Hydroxy 2-(6-{[(quinolin-2-ylmethyl)amino]methyl}-3-azabicyclo[3.1.0]hex-3-yl)pyrimidine-5-carboxamide]: the 50% inhibitory concentration (IC50) in assay [1] is less than 330 nM; in assay [2], 331 to 3300 nM; in assay [3], less than 100 nM; in assay [4], 331 to 3300 nM.
In the case of `O=C(NO)c1cnc(N2CC3C(CNCc4ccc5cc(F)ccc5n4)C3C2)nc1` (stereo not drawn) [Example 75, N-Hydroxy 2-(6-{[(6-fluoroquinolin-2-ylmethyl)amino]methyl}-3-aza-bicyclo[3.1.0]hex-3-yl)pyrimidine-5-carboxamide], the IC50 in assay [1] was in the range of 331 to 3300 nM; in assay [2], 331 to 3300 nM; in assay [3], 101 to 1000 nM; in assay [4], 331 to 3300 nM.
For the compound `O=C(NO)c1cnc(N2CC3CN(S(=O)(=O)c4ccc5ccccc5c4)CC3C2)nc1` (stereo not drawn) [Example 76, N-Hydroxy 2-[5-(naphthalene-2-sulfonyl)hexahydro-pyrrolo[3,4-c]pyrrol-2(1H)-yl]pyrimidine-5-carboxamide], the IC50 in assay [1] is less than 330 nM; in assay [2], 331 to 3300 nM; in assay [3] it was less than 100 nM; in assay [4] it was 331 to 3300 nM.

As a reminder, the IC50 is the point on the concentration scale where inhibition reaches its midpoint.

Source of the values: patent US7932246B2, “Histone deacetylase inhibitors” (Chroma Therapeutics Ltd., priority 2005, dated 2011).
